Test results: patent US20240002375A1, “2-(INDAZOL-5-YL)-6-(PIPERIDIN-4-YL)-1,7-NAPHTHYRIDINE DERIVATIVES AND RELATED COMPOUNDS AS MODULATORS FOR SPLICING NUCLEIC ACIDS AND FOR THE TRE” (REMIX THERAPEUTICS INC., priority 2020, published 2024)
pIC50: −log10 of the molar value. Where a name gives a salt, the structure may show the parent alone. Read-outs that look alike come from different tables or passages of the source.

Key:
Assay type in all cases: cell-based
HTT mRNA = experiment: Splicing assay (RT-qPCR) of HTT mRNA alternative junction (AJ) and canonical junction (CJ); conditions: for pIC50: decrease in CJ mRNA, read-out: HTT CJ IC50
Summary of the method: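 A673 (adherent, 24 h pre-plating) or K562 cells treated 24 h at 37 °C with an 11-point 3-fold dilution series, top 10 uM, DMSO ≤0.25%. Lysates analysed by one-step RT-qPCR for HTT canonical (CJ) and alternative-exon (AJ) junctions, normalised to PPIA (A673) or GAPDH/GUSB (K562).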

HTT CJ mRNA = experiment: Gene panel canonical junction qPCR splicing assay, HTT; conditions: Table 4, read-out: HTT IC50 (decrease in CJ mRNA levels)
Summary of the method: (§1)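 A673 or K562 cells treated with compound; canonical-junction mRNA measured by RT-qPCR with junction-spanning primer/probe sets, normalized to GAPDH, GUSB or PPIA and DMSO (2^−ΔΔCt). IC50 for CJ decrease from 4-parameter logistic fit of percentage response.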

SMN2 CJ mRNA = experiment: Gene panel canonical junction qPCR splicing assay, SMN2; conditions: Table 4, read-out: SMN2 IC50 (decrease in CJ mRNA levels)
Summary of the method: as §1

Target C CJ mRNA = experiment: Gene panel canonical junction qPCR splicing assay, Target C; conditions: Table 4, read-out: Target C IC50 (decrease in CJ mRNA levels)
Summary of the method: as §1

[1] = increase in AJ mRNA, A673 or K562 cells, 24 hours, read-out: HTT AJ AC50

| Compound | pIC50 (HTT mRNA; A673 or K562 cells, 24 hours) | pIC50 (HTT CJ mRNA) | pIC50 (SMN2 CJ mRNA) | pIC50 (Target C CJ mRNA) | AC50 (HTT mRNA; [1]) [nM] | AC50 (HTT mRNA; 24 h, read-out: HTT AJ AC50 (nM)) [nM] | IC50 (HTT mRNA; 24 h, read-out: HTT CJ IC50 (nM)) [nM] |
| --- | --- | --- | --- | --- | --- | --- | --- |
| Cc1cc(=O)c2cc(O)c(-c3ccc4nc(N5CCC(NC(C)(C)C)C5)ccc4n3)cc2o1 (stereo not drawn) [Compound 174] | < 5.00 | < 5.00 | < 5.00 | < 5.00 | > 10000 | – | – |
| COc1cc2nc(C)sc2cc1-c1ccc2nc(N3CCC(NC(C)(C)C)C3)ccc2n1 (stereo not drawn) [Compound 176, N-tert-butyl-1-[6-(5-methoxy-2-methyl-1,3-benzothiazol-6-yl)-1,5-naphthyridin-2-yl]pyrrolidin-3-amine] | 5.00 to 6.00 | 5.00 to 6.00 | 5.00 to 6.00 | 5.00 to 6.00 | 1000 to 10000 | – | – |
| COc1cc2nc(C)oc2cc1-c1ccc2nc(N3CCC(NC(C)(C)C)C3)ccc2n1 (stereo not drawn) [Compound 177, N-tert-butyl-1-[6-(5-methoxy-2-methyl-1,3-benzoxazol-6-yl)-1,5-naphthyridin-2-yl]pyrrolidin-3-amine] | 5.00 to 6.00 | 5.00 to 6.00 | 5.00 to 6.00 | 5.00 to 6.00 | 1000 to 10000 | – | – |
| Cn1cc2cc(-c3ccc4nc(N5CC[C@H](NCC(F)(F)F)C5)ccc4n3)c(O)cc2n1 [Compound 182, 2-methyl-5-{6-[(3S)-3-[(2,2,2-trifluoroethyl)amino]pyrrolidin-1-yl]-1,5-naphthyridin-2-yl}indazol-6-ol] | 5.00 to 6.00 | 5.00 to 6.00 | 5.00 to 6.00 | < 5.00 | > 10000 | – | – |
| Cn1cc2cc(-c3ccc4nc(C5CCNCC5)ccc4n3)ccc2n1 [Compound 184, 2-(2-methylindazol-5-yl)-6-(piperidin-4-yl)-1,5-naphthyridine] | 5.00 to 6.00 | 5.00 to 6.00 | > 7.00 | 6.00 to 7.00 | 100 to 1000 | – | – |
| Cn1cc2cc(-c3ccc4nc(C5CCNCC5)ccc4n3)cc(F)c2n1 [Compound 185, 2-(7-fluoro-2-methylindazol-5-yl)-6-(piperidin-4-yl)-1,5-naphthyridine] | 5.00 to 6.00 | 5.00 to 6.00 | 6.00 to 7.00 | 5.00 to 6.00 | 1000 to 10000 | – | – |
| Cc1cn2nc(-c3ccc4nc(N5CCC(NC(C)(C)C)C5)ccc4n3)cc(C)c2n1 (stereo not drawn) [Compound 186, N-tert-butyl-1-(6-{2,8-dimethylimidazo[1,2-b]pyridazin-6-yl}-1,5-naphthyridin-2-yl)pyrrolidin-3-amine] | – | > 7.00 | > 7.00 | > 7.00 | – | < 100 | < 100 |
| Cc1nc2cc(O)c(-c3ccc4nc(N5CCC(NC(C)(C)C)C5)ccc4n3)cc2s1 (stereo not drawn) [Compound 190, 6-{6-[3-(tert-butylamino)pyrrolidin-1-yl]-1,5-naphthyridin-2-yl}-2-methyl-1,3-benzothiazol-5-ol; trifluoroacetic acid] | < 5.00 | < 5.00 | > 7.00 | < 5.00 | > 10000 | – | – |
| CN1CCCC2(CCN2c2ccc3nc(-c4cc5cn(C)nc5cc4O)ccc3n2)C1 (stereo not drawn) [Compound 192, 2-methyl-5-(6-{6-methyl-1,6-diazaspiro[3.5]nonan-1-yl}-1,5-naphthyridin-2-yl) indazol-6-ol] | < 5.00 | < 5.00 | < 5.00 | < 5.00 | > 10000 | – | – |
| Cn1cc2cc(-c3ccc4nc(C5CCNCC5)ccc4n3)c(F)cc2n1 [Compound 193, 2-(6-fluoro-2-methylindazol-5-yl)-6-(piperidin-4-yl)-1,5-naphthyridine] | 5.00 to 6.00 | 5.00 to 6.00 | 5.00 to 6.00 | 5.00 to 6.00 | 1000 to 10000 | – | – |
| Cn1cc2cc(-c3ccc4nc(C5CCNCC5)ccc4n3)c(C(F)F)cc2n1 [Compound 196, 2-[6-(difluoromethyl)-2-methylindazol-5-yl]-6-(piperidin-4-yl)-1,5-naphthyridine] | < 5.00 | < 5.00 | 5.00 to 6.00 | < 5.00 | > 10000 | – | – |
| Cn1cc2cc(-c3ccc4nc(C5CCNCC5)ccc4n3)ncc2n1 [Compound 200] | 5.00 to 6.00 | 5.00 to 6.00 | 5.00 to 6.00 | 5.00 to 6.00 | 1000 to 10000 | – | – |
| Cc1cn2cc(-c3ccc4nc(N5CCC(NC(C)(C)C)C5)ccc4n3)cc(C)c2n1 (stereo not drawn) [Compound 201] | 6.00 to 7.00 | 6.00 to 7.00 | > 7.00 | 6.00 to 7.00 | 100 to 1000 | – | – |
| Cn1cc2cc(-c3ccc4nc(C5CCNCC5)ccc4n3)c(C#N)cc2n1 [Compound 204, 2-methyl-5-[6-(piperidin-4-yl)-1,5-naphthyridin-2-yl]indazole-6-carbonitrile] | 5.00 to 6.00 | 5.00 to 6.00 | 6.00 to 7.00 | < 5.00 | 1000 to 10000 | – | – |

Now from value to compound, other results behind:

| pIC50 (HTT mRNA; A673 or K562 cells, 24 hours) | pIC50 (HTT CJ mRNA) | pIC50 (SMN2 CJ mRNA) | pIC50 (Target C CJ mRNA) | Compound | AC50 (HTT mRNA; [1]) [nM] | AC50 (HTT mRNA; 24 h, read-out: HTT AJ AC50 (nM)) [nM] | IC50 (HTT mRNA; 24 h, read-out: HTT CJ IC50 (nM)) [nM] |
| --- | --- | --- | --- | --- | --- | --- | --- |
| > 7.00 | > 7.00 | > 7.00 | 6.00 to 7.00 | CN[C@@H]1CCN(c2ccc3nc(-c4cc5cn(C)nc5cc4O)ccc3n2)C1 [Compound 172] | 100 to 1000 | – | – |
| > 7.00 | > 7.00 | > 7.00 | > 7.00 | CC(C)N[C@@H]1CCN(c2ccc3nc(-c4cc5cn(C)nc5cc4O)ccc3n2)C1 [Compound 173] | < 100 | – | – |
| > 7.00 | > 7.00 | > 7.00 | > 7.00 | Cc1nc2cc(O)c(-c3ccc4nc(N5CCC(NC(C)(C)C)C5)ccc4n3)cc2o1 (stereo not drawn) [Compound 175, 6-{6-[3-(tert-butylamino)pyrrolidin-1-yl]-1,5-naphthyridin-2-yl}-2-methyl-1,3-benzoxazol-5-ol] | < 100 | – | – |
| 6.00 to 7.00 | 6.00 to 7.00 | > 7.00 | 5.00 to 6.00 | Cn1cc2cc(-c3ccc4nc(N5CCC6(CCN6)C5)ccc4n3)c(O)cc2n1 (stereo not drawn) [Compound 178, 5-(6-{1,6-diazaspiro[3.4]octan-6-yl}-1,5-naphthyridin-2-yl)-2-methylindazol-6-ol] | 100 to 1000 | – | – |
| > 7.00 | > 7.00 | > 7.00 | 6.00 to 7.00 | CCN[C@H]1CCN(c2ccc3nc(-c4cc5cn(C)nc5cc4O)ccc3n2)C1 [Compound 179] | < 100 | – | – |
| > 7.00 | > 7.00 | > 7.00 | 6.00 to 7.00 | CCN[C@@H]1CCN(c2ccc3nc(-c4cc5cn(C)nc5cc4O)ccc3n2)C1 [Compound 180] | 100 to 1000 | – | – |
| > 7.00 | > 7.00 | > 7.00 | > 7.00 | Cc1cn2nc(-c3ccc4nc(N5CCC(NC(C)(C)C)C5)ccc4n3)cc2c(C)n1 (stereo not drawn) [Compound 187] | < 100 | – | – |
| 6.00 to 7.00 | 6.00 to 7.00 | > 7.00 | 5.00 to 6.00 | Cn1cc2cc(-c3ccc4nc(N5CC[C@@H](NC6COC6)C5)ccc4n3)c(O)cc2n1 [Compound 188] | 100 to 1000 | – | – |
| > 7.00 | < 5.00 | < 5.00 | < 5.00 | Cc1c(O)c(-c2ccc3nc(N4CCC(NC(C)(C)C)C4)ccc3n2)cc2cn(C)nc12 (stereo not drawn) [Compound 191, 5-{6-[3-(tert-butylamino)pyrrolidin-1-yl]-1,5-naphthyridin-2-yl}-2,7-dimethylindazol-6-ol hydrochloride] | < 100 | – | – |
| > 7.00 | > 7.00 | > 7.00 | > 7.00 | Cn1cc2cc(-c3ccc4nc(N5CC[C@H](NCC6CC6)C5)ccc4n3)c(O)cc2n1 [Compound 194] | < 100 | – | – |
| 6.00 to 7.00 | 6.00 to 7.00 | > 7.00 | 6.00 to 7.00 | Cn1cc2cc(-c3ccc4nc(N5CC[C@@H](NCC6CC6)C5)ccc4n3)c(O)cc2n1 [Compound 195] | < 100 | – | – |
| > 7.00 | > 7.00 | > 7.00 | 6.00 to 7.00 | Cn1cc2cc(-c3ccc4nc(N5CC[C@H](NC6CC6)C5)ccc4n3)c(O)cc2n1 [Compound 197, 5-{6-[(35)-3-(cyclopropylamino)pyrrolidin-1-yl]-1,5-naphthyridin-2-yl}-2-methylindazol-6-ol] | < 100 | – | – |
| > 7.00 | > 7.00 | > 7.00 | 6.00 to 7.00 | Cn1cc2cc(-c3ccc4nc(N5CC[C@@H](NC6CC6)C5)ccc4n3)c(O)cc2n1 [Compound 198] | < 100 | – | – |
| 6.00 to 7.00 | 6.00 to 7.00 | 6.00 to 7.00 | 6.00 to 7.00 | Cn1cc2nc(-c3ccc4nc(C5CCNCC5)ccc4n3)ccc2n1 [Compound 199, 2-{2-methylpyrazolo[4,3-b]pyridin-5-yl}-6-(piperidin-4-yl)-1,5-naphthyridine] | 100 to 1000 | – | – |
| > 7.00 | > 7.00 | < 5.00 | > 7.00 | Cn1cc2cc(-c3ccc4nc(N5CCC(NC(C)(C)C)C5)ccc4n3)c(O)c(F)c2n1 (stereo not drawn) [Compound 202] | < 100 | – | – |
| > 7.00 | > 7.00 | > 7.00 | > 7.00 | Cc1cn2nc(-c3ccc4nc(N5CCC(NC(C)(C)C)C5)ccc4n3)c(O)c2c(C)n1 (stereo not drawn) [Compound 203, 2-{6-[3-(tert-butylamino)pyrrolidin-1-yl]-1,5-naphthyridin-2-yl}-4,6-dimethylpyrazolo[1,5-a]pyrazin-3-ol] | < 100 | – | – |
